The text below walks through data of BindingDB's records for doi:10.1021/ml1002508 (2011).

For orientation: EC50 means the concentration at which the effect is half-maximal.

A short description of this experiment: Agonist activity at androgen receptor expressed in mouse C2C12 cells assessed as osteoblast differentiation after 5 days.

Turning to `Cc1c(N[C@@H](c2nnc(-c3ccc(C#N)cc3)o2)[C@H](C)O)ccc(C#N)c1Cl` [2-chloro-4-((1R,2S)-1-(5-(4-cyanophenyl)-1,3,4-oxadiazol-2-yl)-2-hydroxypropylamino)-3-methylbenzonitrile], the EC50 turned out to be 0.1 nM.
